Biological target: xanthine oxidase (Homo sapiens, UniProt P47989)
Assay: Fluorescence-based xanthine oxidase activity assay
Type: biochemical
Settings: verbal rating

Sequence of xanthine oxidase (P47989 whole entry, species assumed): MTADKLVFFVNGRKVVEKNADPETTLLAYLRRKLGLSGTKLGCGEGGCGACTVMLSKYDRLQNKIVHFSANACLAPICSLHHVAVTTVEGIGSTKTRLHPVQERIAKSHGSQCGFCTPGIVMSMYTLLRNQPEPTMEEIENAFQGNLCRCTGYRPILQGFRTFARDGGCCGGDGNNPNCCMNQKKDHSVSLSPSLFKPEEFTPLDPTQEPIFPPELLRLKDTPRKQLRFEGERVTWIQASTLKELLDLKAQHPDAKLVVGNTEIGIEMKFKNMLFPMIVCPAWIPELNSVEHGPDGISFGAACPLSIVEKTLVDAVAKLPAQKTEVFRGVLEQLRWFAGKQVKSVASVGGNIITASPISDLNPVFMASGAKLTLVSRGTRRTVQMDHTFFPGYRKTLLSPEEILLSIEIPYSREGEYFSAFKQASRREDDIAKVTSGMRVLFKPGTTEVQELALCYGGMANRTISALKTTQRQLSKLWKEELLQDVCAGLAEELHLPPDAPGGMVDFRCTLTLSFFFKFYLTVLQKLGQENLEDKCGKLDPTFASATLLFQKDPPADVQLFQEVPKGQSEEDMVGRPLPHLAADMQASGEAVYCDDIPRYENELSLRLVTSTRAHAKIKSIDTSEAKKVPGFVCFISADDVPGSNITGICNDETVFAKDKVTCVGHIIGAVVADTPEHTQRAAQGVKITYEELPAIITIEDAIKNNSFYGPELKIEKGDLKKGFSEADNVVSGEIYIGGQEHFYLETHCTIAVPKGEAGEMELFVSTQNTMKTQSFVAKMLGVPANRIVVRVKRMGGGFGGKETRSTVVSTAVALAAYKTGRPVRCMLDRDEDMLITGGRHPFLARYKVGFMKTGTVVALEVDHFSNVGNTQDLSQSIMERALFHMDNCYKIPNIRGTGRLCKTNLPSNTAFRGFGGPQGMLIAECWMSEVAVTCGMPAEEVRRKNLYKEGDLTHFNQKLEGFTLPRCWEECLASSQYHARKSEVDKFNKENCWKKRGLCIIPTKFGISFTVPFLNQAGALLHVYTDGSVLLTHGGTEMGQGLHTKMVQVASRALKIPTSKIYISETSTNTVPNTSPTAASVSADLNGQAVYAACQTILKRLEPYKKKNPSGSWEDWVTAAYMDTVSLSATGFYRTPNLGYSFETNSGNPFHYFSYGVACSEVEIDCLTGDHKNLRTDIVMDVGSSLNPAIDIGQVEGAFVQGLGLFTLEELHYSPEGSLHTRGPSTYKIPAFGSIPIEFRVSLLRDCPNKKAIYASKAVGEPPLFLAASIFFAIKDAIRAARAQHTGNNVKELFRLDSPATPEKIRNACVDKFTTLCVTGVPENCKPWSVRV

| SMILES | inhibition of xanthine oxidase compared to allopurinol |
| --- | --- |
| COc1nc(O)c(C(=O)Nc2ccc(-c3cnn[nH]3)cc2)c(=O)[nH]1 [Formula (IIb), N-(4-(3H-1,2,3-triazol-4-yl)phenyl)-4-hydroxy-2-methoxy-6-oxo-1,6-dihydropyrimidine-5-carboxamide] | particularly potent inhibitors |
| CC(C)Sc1nc(O)c(C(=O)Nc2ccc(-c3c[nH]nn3)cc2)c(=O)[nH]1 [Formula (IId), N-(4-(1H-1,2,3-triazol-5-yl)phenyl)-4-hydroxy-2-(isopropylthio)-6-oxo-1,6-dihydropyrimidine-5-carboxamide] | particularly potent inhibitors |
| N=C(Nc1ccc(-c2cnn[nH]2)cc1)c1c(O)[nH]c(=O)[nH]c1=O [Formula (Ia), N-(4-(1H-1,2,3-triazol-4-yl)phenyl)-6-hydroxy-2,4-dioxo-1,2,3,4-tetrahydropyrimidine-5-carboximidamide] | particularly potent inhibitors |
| O=c1[nH]c(O)c(/C(=N\O)Nc2ccc(-c3cnn[nH]3)cc2)c(=O)[nH]1 [Formula (Ic), (E)-N-(4-(1H-1,2,3-triazol-5-yl)phenyl)-N′-hydroxy-2,4,6-trioxohexahydro-pyrimidine-5-carboximidamide] | particularly potent inhibitors |
| Cn1c(O)c(C(=N)Nc2ccc(-c3cnn[nH]3)cc2)c(=O)n(C)c1=O [Formula (If), N-(4-(1H-1,2,3-triazol-5-yl)phenyl)-6-hydroxy-1,3-dimethyl-2,4-dioxo-1,2,3,4-tetrahydropyrimidine-5-carboximidamide] | particularly potent inhibitors |
| Cn1c(=O)[nH]c(O)c(C(=O)Nc2ccc(-c3cnn[nH]3)cc2)c1=O [Formula (Ig), N-(4-(1H-1,2,3-triazol-4-yl)phenyl)-2,4-dihydroxy-1-methyl-6-oxo-1,6-dihydropyrimidine-5-carboxamide] | particularly potent inhibitors |
| Cn1c(=O)[nH]c(O)c(C(=N)Nc2ccc(-c3cnn[nH]3)cc2)c1=O [Formula (Ih)] | particularly potent inhibitors |
| Nc1[nH]c(=O)[nH]c(=O)c1C(=O)Nc1ccc(-c2c[nH]nn2)cc1 [Formula (Ik), N-(4-(1H-1,2,3-triazol-5-yl)phenyl)-6-amino-2,4-dioxo-1,2,3,4-tetrahydropyrimidine-5-carboxamide] | particularly potent inhibitors |
| O=c1[nH]c(=O)c2c(Nc3ccc(-c4cnn[nH]4)cc3)noc2[nH]1 [Formula (VIa), 3-((4-(1H-1,2,3-triazol-5-yl)phenyl)amino)isoxazolo[5,4-d]pyrimidine-4,6(5H,7H)-dione] | particularly potent inhibitors |
| O=c1[nH]c(=O)c2c(Nc3ccc(-c4cnn[nH]4)cc3)n[nH]c2[nH]1 [Formula (VIb), 3-((4-(1H-1,2,3-triazol-5-yl)phenyl)amino)-1H-pyrazolo[3,4-d]pyrimidine-4,6(5H,7H)-dione] | particularly potent inhibitors |

— patent US20220024900A1, “Compounds and Their Use for Reducing Uric Acid Levels” (Acquist LLC, priority 2016, published 2022)
